Measurements reported in patent US20070049569A1, “Methods of using fatty-acid esters of estrogens and thermogenic compounds for reducing the body weight of a mammal and compositions containing the same” (Oleoyl-Estrone Developments SL, priority 2004, published 2007).

What was measured:
[1] = Energy balance (carcass energy content, energy intake, energy expenditure) of treated male Wistar rats; assay type: in vivo; settings: 10-day treatment; for changes in energy expenditure versus control group (in words): estimated as energy intake minus accrual; for loss of body energy: oleoyl-estrone 10 micromol/kg daily gavage, CL-316243 1 mg/kg daily s.c. infusion; for decrease in food consumption: versus control group
From the text: (§1) Forty-five day-old male Wistar rats were used. The rats were kept in collective cages in a light cycle, temperature, and humidity-controlled environment. They were fed tap water and a self-selected cafeteria diet (containing an excess of tasty, energy-dense foods, as well as standard chow) for 45 additional days. Then they were subjected to a 5-day diet adaptation period, in which they had rat chow as the sole food available. At this point, the rats weighed 350-370 g and had significant amounts of body fat. Maintaining the availability of rat chow (daily consumption by the group was recorded) and tap water, body weight was recorded daily. The animals were given a daily gavage of either 0.2 mL of sunflower oil or the same vehicle containing oleoyl-estrone to a daily dose of 10 micromol/kg of body weight.
(§2) This standard feeding and drug administration schedule was complemented by treating one half of the animals receiving only oil and one half of the animals receiving oil and oleoyl-estrone with a daily dose of 1 mg/kg of CL-316243, a beta-3 adrenergic agonist. This drug was continuously administered by means of subcutaneous infusion using Alzet osmotic minipumps (model 2002; 0.5 microliter/h) loaded with drug dissolved in saline. The minipumps were inserted subcutaneously in the dorsal lumbar area of the experimental animals by means of a short cut in the skin. The pumps were tested before their implantation, and the fluid remaining in the minipumps was later measured in order to check the effectiveness of the infusion.
(§3) The treatment was maintained up to 10 days, when the animals were killed by decapitation, and their blood and carcass were used for analyses.
(§4) Samples of the rat paste were dried and used for the estimation of their caloric content using a bomb calorimeter. The initial values for lipid content were calculated from the corresponding in vivo body weights at the beginning of the experiment and applying to all the animals the mean percentage of lipid content found in the control (vehicle only) group at the end of the experiment. This same procedure was used to determine the overall energy content of the carcasses by using the experimentally found energy content of the rats in the control group. Likewise, the energy content of the pellet diet was also measured and used to estimate the energy intake of the animals.
Energy expenditure (Ee) was estimated as the difference between energy intake (Ei) and accrual (Ea), since: Ei=Ee±Ea.

[2] = Body weight and lipid changes of overweight male Wistar rats in the 10-day period of treatment; assay type: in vivo; settings: 10-day treatment; oleoyl-estrone 10 micromol/kg daily gavage; CL-316243 1 mg/kg daily s.c. infusion
From the text: as §1, §2, §3
The rat corpses, partially exsanguinated were dissected. The stomach and intestines were cleaned of their contents. The remaining carcass was sealed into polyethylene bags, autoclaved and blended to a fine paste. This paste was analyzed for lipid content by extraction using trichloromethane/methanol and corrected by its water content. Lipid content in the paste was referred to whole in vivo body weight for comparison.
as §4

For `C[C@H](Cc1ccc2c(c1)OC(C(=O)[O-])(C(=O)[O-])O2)NC[C@H](O)c1cccc(Cl)c1.[Na+].[Na+]` [beta-3 agonist], the “contribution of internal reserves to fuel the energy expenditure” value [1] was 28%, the “changes in energy expenditure versus control group (in words)” value [1] was “higher than that of the control group by more than one-third” and the “loss of body energy” value [1] was 821 kJ. For the same molecule, the “increase in energy expenditure” value ([1]; rats treated with the beta-3 agonist, alone or with oleoyl-estrone) was 136%, the “decrease in food consumption” value [1] was “did not show a significant loss of appetite” and the “loss of body weight” value [2] was “less than 3%”. The “loss of lipid (lipid stores)” value [2] was 42%.

For `CCCCCCCC/C=C\CCCCCCCC(=O)Oc1ccc2c(c1)CC[C@@H]1[C@@H]2CC[C@]2(C)C(=O)CC[C@@H]12` [oleoyl-estrone, [3(Z)]-3-[(1-oxo-9-octadecenyl)oxy]-estra-1,3,5(10)-trien-17-one], the “contribution of internal reserves to fuel the energy expenditure” value [1] was 19%, the “changes in energy expenditure versus control group (in words)” value [1] was “slight decrease” and the “loss of body energy” value [1] was 354 kJ. The “decrease in food consumption” value [1] was 32%, the “loss of body weight” value [2] was “about 8%” and the “loss of lipid (lipid stores)” value [2] was 13%.
